Measured values reported in US7829063B2, “Development of molecular imaging probes for carbonic anhydrase-IX using click chemistry” (Siemens Medical Solutions USA, Inc., priority 2007, dated 2010).
Like-named read-outs stand apart in the source and are kept apart here.

Target: T1, CA-IX (Homo sapiens, UniProt Q16790)
T1 construct: His tag (C); purchased R&D Systems Inc. 2188-CA; host or cells: mouse myeloma cell line NS0
Assay: CA-IX combinatorial library screening, competitive fluorescence-based assay with dansylamide (DNSA)
Assay type: binding
Conditions: sample concentrations 100 nM and 1000 nM, DNSA 200 μM, screening at 1 μM; for inhibition at 1 µM: 1 h
Experimental: General. CA-IX human recombinant enzyme was expressed with a C-terminal His tag in a mouse myeloma cell line, NS0 (R&D Systems Inc., catalog number 2188-CA). The human red blood cells were obtained from Research Blood Components, LLC. All absorbance measurements were performed on a SPECTRA MAX M2 plate reader at 25° C. The LC/MS analyses were performed on an Agilent 1100 series LC/MSD (SL) using a 30×2.1 mm Zorbax C8 column with a Phenomenex C18 pre-column. Compound detection was accomplished by electrospray mass spectroscopy in positive selected ion mode (LC/MS-SIM). The elution solvents were acetonitrile and water, contained 0.05% TFA. Nuclear magnetic resonance (NMR) spectra were obtained on a Bruker AMX 300 MHz spectrometer or a Varian 400. 19F NMR spectra were recorded on a Bruker AMX 282.35 MHz or a Varian 400 spectrometer. The mass spectra were recorded on an Agilent 1100 series LC/MSD with electrospray mass spectroscopic detection. Flash column chromatography was performed on Merck silica gel (40-63 μm) using the solvent system indicated. The radiochemical and chemical purities were analyzed by RP-HPLC.
General Combinatorial Library Screening Protocol for CA-IX
The CA-IX screening assay was employed for testing libraries derived from the various “anchor” molecules, using ethoxzolamide as a positive control. The assay was performed at a substrate (dansylamide, DNSA) concentration of 200 μM, and sample concentrations of 100 nM and 1000 nM, respectively. A modified competitive fluorescence-based assay (A. Jain, S. G. Huang, G. M. Whitesides, J. Am. Chem. Soc. 1994, 116, 5057) was used to measure CA-IX activity. The enzymatic assay was carried out in a 96-well plate. To the wells, deionized water, 40 μL of phosphate buffer (250 mM, pH 7.4), 2.4 μL of CA-IX (17 μM), and 2 μL or 20 μL of inhibitor (concentration of 100 nM or 1000 nM) were added to achieve a final volume of 180 μL. Reactions were initiated by adding 20 μL DNSA (200 μM) to each well and the plate was incubated at 25° C. for 1 hour. The fluorescence intensities from each well of the plate were then read at 460 nm using a plate reader with an excitation wavelength of 290 nm.

[1] = Table 2, Libraries 4-7, read-out: In Vitro Binding Assay (Library (Screening))
[2] = Table 1, Libraries 1-3, read-out: In Vitro Binding Assay (Library Screening)

Row | inhibition at 1 µM [1] [%] | Compound | other results
1 | – | COC(=O)C(C)NC(=O)[C@H](Cc1ccccc1)n1cc(COc2ccc3nc(S(N)(=O)=O)sc3c2)nn1 (stereo partly shown) [DHK-2-61] | In Vitro Binding Assay (Library Screening) (Table 2, Libraries 4-7): √
2 | < 40 | CC(C)[C@@H](C(=O)N1CCN(c2ncccn2)CC1)n1cc(-c2ccc(S(N)(=O)=O)cc2)nn1 [DHK190] | –
3 | – | NS(=O)(=O)c1ccc(-c2cn(CC(=O)N3CCN(c4cc(Cl)cc(Cl)c4)CC3)nn2)cc1 [DHK107] | inhibition at 1 µM [2]: < 40%
4 | < 40 | Cn1c(CNC(=O)[C@H](Cc2ccccc2)n2cc(-c3ccc(S(N)(=O)=O)cc3)nn2)nc2ccccc21 [DHK-2-22] | –
5 | < 40 | CC(C)[C@@H](C(=O)N1CCC(N2CCCC2)CC1)n1cc(-c2ccc(S(N)(=O)=O)cc2)nn1 [DHK188] | –
6 | < 40 | Cn1c(CNC(=O)[C@H](Cc2ccccc2)n2cc(COc3ccc4nc(S(N)(=O)=O)sc4c3)nn2)nc2ccccc21 [DHK-2-73] | –
7 | – | NS(=O)(=O)c1ccc(-c2cn(Cc3cccc(Br)c3)nn2)cc1 [DHK18] | inhibition at 1 µM [2]: < 40%
8 | – | CC(C)[C@@H](C(=O)O)n1cc(-c2ccc(S(N)(=O)=O)cc2)nn1 [DHK66] | inhibition at 1 µM [2]: < 40%
9 | < 40 | CN(Cc1ccccc1)C(=O)[C@H](Cc1ccccc1)n1cc(COc2ccc3nc(S(N)(=O)=O)sc3c2)nn1 [DHK-2-53] | –
10 | < 40 | NS(=O)(=O)c1nc2ccc(OCc3cn([C@@H](Cc4ccccc4)C(=O)N[C@@H]4c5ccccc5C[C@@H]4O)nn3)cc2s1 [DHK-2-70] | –
11 | < 40 | CCOC(=O)C(NC(=O)[C@H](C(C)C)n1cc(COc2ccc3nc(S(N)(=O)=O)sc3c2)nn1)C(C)C (stereo partly shown) [DHK-2-33] | –
12 | < 40 | CC(C)[C@@H](C(=O)NCCCO)n1cc(-c2ccc(S(N)(=O)=O)cc2)nn1 [DHK181] | –
13 | – | NS(=O)(=O)c1ccc(C(=O)NCc2cn(C3C(O)C(O)OC3C(O)CO)nn2)cc1 (stereo not shown) [DHK112] | inhibition at 1 µM [2]: < 40%
14 | – | CC(C)[C@@H](C(=O)NCc1ccco1)n1cc(CNC(=O)c2ccc(S(N)(=O)=O)cc2)nn1 [DHK54] | inhibition at 1 µM [2]: < 40%
15 | < 40 | CC(C)[C@@H](C(=O)NC1CCCCC1)n1cc(-c2ccc(S(N)(=O)=O)cc2)nn1 [DHK179] | –
16 | < 40 | NS(=O)(=O)c1nc2ccc(OCc3cn([C@@H](Cc4ccccc4)C(=O)NC4CCCCC4)nn3)cc2s1 [DHK-2-63] | –
17 | < 40 | CCOC(=O)C1CCN(C(=O)[C@H](Cc2ccccc2)n2cc(-c3ccc(S(N)(=O)=O)cc3)nn2)CC1 [DHK-2-17] | –
18 | – | NS(=O)(=O)c1ccc(-c2cn(CCC(=O)Nc3ccccc3)nn2)cc1 [DHK102] | inhibition at 1 µM [2]: < 40%
19 | – | Cc1onc(-c2ccccc2)c1CNC(=O)[C@H](Cc1ccccc1)n1cc(COc2ccc3nc(S(N)(=O)=O)sc3c2)nn1 [DHK-2-66] | In Vitro Binding Assay (Library Screening) (Table 2, Libraries 4-7): √ √
20 | < 40 | CC(C)[C@@H](C(=O)N1CCN(c2ncccn2)CC1)n1cc(COc2ccc3nc(S(N)(=O)=O)sc3c2)nn1 [DHK-2-28] | –
21 | < 40 | CC(C)[C@@H](C(=O)N1CCN(CCO)CC1)n1cc(-c2ccc(S(N)(=O)=O)cc2)nn1 [DHK185] | –
22 | – | CCOC(=O)c1ccc(Cn2cc(CNC(=O)c3ccc(S(N)(=O)=O)cc3)nn2)cc1 [DHK51] | inhibition at 1 µM [2]: < 40%
23 | < 40 | CC(C)[C@@H](C(=O)N1CCN(CCO)CC1)n1cc(COc2ccc3nc(S(N)(=O)=O)sc3c2)nn1 [DHK-2-42] | –
24 | – | CC(C)[C@H](C(=O)NCc1ccccc1)n1cc(-c2ccc(S(N)(=O)=O)cc2)nn1 [DHK23] | inhibition at 1 µM [2]: < 40%
25 | – | CCOC(=O)C1CCN(C(=O)[C@H](C(C)C)n2cc(COc3ccc4nc(S(N)(=O)=O)sc4c3)nn2)CC1 [DHK-2-41] | In Vitro Binding Assay (Library Screening) (Table 2, Libraries 4-7): √
26 | < 40 | CC(C)[C@@H](C(=O)N[C@@H]1c2ccccc2C[C@@H]1O)n1cc(COc2ccc3nc(S(N)(=O)=O)sc3c2)nn1 [DHK-2-43] | –
27 | – | CC(C)[C@@H](C(=O)NCc1ccc(C(F)(F)F)cc1)n1cc(COc2ccc3nc(S(N)(=O)=O)sc3c2)nn1 [DHK-2-24] | In Vitro Binding Assay (Library Screening) (Table 2, Libraries 4-7): √ √
28 | < 40 | NS(=O)(=O)c1nc2ccc(OCc3cn([C@@H](Cc4ccccc4)C(=O)N4CCN(CCO)CC4)nn3)cc2s1 [DHK-2-69] | –
